Molecules are shown by their SMILES.

By IC50 is commonly meant the concentration at which inhibition is half-maximal. For orientation: GI50 means the concentration that inhibits growth by half. Low readings indicate greater sensitivity of the cells, high ones lower sensitivity of the cells.

One experiment deals with A431 cells. The experiment is described as follows: A431 Cell Growth Inhibition Test (MTT Assay). It is filed as cell-based, human. To be noted: for IC50 / inhibition at 1 µM: Homo sapiens; for IC50: A-431, 68 h incubation; for Growth Inhibition Ratio (%) / inhibition at 1 µM: compound 1 μM, 68 h incubation; for inhibition at 1 µM: A-431, 68 h, read-out: Growth Inhibition Ratio (%). In short, it runs like this:
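Cells seeded at 2500/well in DMEM/F12 with 10% FBS, grown overnight, then exposed to compound for 68 h at 37 °C, 5% CO2. Viability by MTT (0.5 mg/ml, 4 h), DMSO-solubilised, OD 490 nm; IC50 is concentration giving 50% growth inhibition relative to controls.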

Another experiment deals with A549 cells. Description: A549 Cell Growth Inhibition Test (MTT Assay). It is filed as cell-based. The following applies: Homo sapiens, 72 h incubation. In short, it runs like this: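 Human lung cancer A549 cells, seeded at 2500 cells per well, were exposed to compound for 72 h at 37° C., 5% CO2. Viability by MTT (0.5 mg/ml, 3 h), DMSO-dissolved, OD at 490 nm; IC50 fitted from inhibition ratio relative to controls.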

The next experiment has as its system LoVo cells. The experiment is described as follows: LoVo Cell Growth Inhibition Test (MTT Assay). To be noted: Homo sapiens, 72 h incubation. The experiment is classed as cell-based. The gist of the method:
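Human LoVo intestinal cancer cells, 3000-4000 per well, were treated with compound for 72 h at 37° C, 5% CO2. Growth was measured by MTT (0.5 mg/ml, 4 h), DMSO-solubilised, OD 490 nm; IC50 is the concentration giving 50% inhibition.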

A further experiment deals with Sk-Br-3 cells. Description: Sk-Br-3 Cell Growth Inhibition Test (SRB Assay). The experiment is classed as cell-based. The following applies: Homo sapiens, 91 h incubation. The gist of the method:
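Sk-Br-3 cells seeded at 10000/well in DMEM with 10% FBS were incubated overnight, then exposed to compound for 91 h at 37° C, 5% CO2. TCA-fixed cells were SRB-stained and OD read at 570 nm. GI50, TGI and LC50 were derived from growth relative to time-zero, untreated and blank wells.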

In the case of `CN(C)C/C=C/C(=O)Nc1cc2c(Nc3ccc(OCc4cccc(F)c4)c(Cl)c3)c(C#N)cnc2cc1OC1CCOC1` (stereo not drawn) [Example 9, (E)-N-(4-(4-(3-FLUOROBENZYLOXY)-3-CHLOROPHENYLAMINO)-3-CYANO-7-(TETRAHYDROFURAN-3-YL-OXY)QUINOLIN-6-YL)-4-(DIMETHYLAMINO)-BUT-2-ENAMIDE], the values for the IC50 in the experiment on A431 cells, in the experiment with A549 cells and with LoVo cells were 135 nM, 1700 nM and 1580 nM, respectively. Besides, in the experiment with A431 cells, the “Growth Inhibition Ratio (%)” value is listed as 90%. The molecule further yielded a GI50 with Sk-Br-3 cells of 15 nM.
Turning to `C#Cc1cccc(Nc2c(C#N)cnc3cc(O[C@H]4CCOC4)c(NC(=O)/C=C/CN(CC)CC)cc23)c1` [Example 143, (S,E)-N-(3-CYANO-4-(3-ETHYNYLPHENYLAMINO)-7-(TETRAHYDROFURAN-3-YL-OXY)QUINOLIN-6-YL)-4-(DIETHYLAMINO)-BUT-2-ENAMIDE], in the experiment with A431 cells, the inhibition at 1 µM amounted to 70%. The IC50 with A431 cells was found to be 59 nM; with A549 cells it was 1500 nM; in the experiment with LoVo cells it was 7500 nM. In the experiment on Sk-Br-3 cells, this molecule displayed a GI50 of 231 nM.
As for `C#Cc1cccc(Nc2c(C#N)cnc3cc(OC4CCOC4)c(NC(=O)/C=C/CN(C)C)cc23)c1` (stereo not drawn) [Example 5, (E)-N-(3-CYANO-4-(3-ETHYNYLPHENYLAMINO)-7-(TETRAHYDROFURAN-3-YL-OXY)QUINOLIN-6-YL)-4-(DIMETHYLAMINO)-BUT-2-ENAMIDE], the values for the IC50 in the experiment on A431 cells, in the experiment on A549 cells and in the experiment on LoVo cells were 24 nM, 1300 nM and 8570 nM, respectively. In addition, in the experiment with A431 cells, the “Growth Inhibition Ratio (%)” value stood at 85%. The same molecule yielded a GI50 in the experiment on Sk-Br-3 cells of 24 nM.
`C#Cc1cccc(Nc2c(C#N)cnc3cc(O[C@@H]4CCOC4)c(NC(=O)/C=C/CN(C)C)cc23)c1` [Example 141, (R,E)-N-(3-CYANO-4-(3-ETHYNYLPHENYLAMINO)-7-(TETRAHYDROFURAN-3-YL-OXY)QUINOLIN-6-YL)-4-(DIMETHYLAMINO)-BUT-2-ENAMIDE]: the inhibition at 1 µM with A431 cells is 80%. In addition, the results for the IC50 in the experiment with A431 cells, in the experiment on A549 cells and in the experiment with LoVo cells were 50 nM, 800 nM and 7630 nM, respectively. Besides, halving of growth in the experiment with Sk-Br-3 cells (GI50) required 39 nM.
For the molecule `Cc1ccccc1COc1ccc(Nc2c(C#N)cnc3cc(OC4CCOC4)c(NC(=O)/C=C/CN(C)C)cc23)cc1Cl` (stereo not drawn) [Example 17, (E)-N-(4-(4-(2-METHYLBENZYLOXY)-3-CHLOROPHENYLAMINO)-3-CYANO-7-(TETRAHYDROFURAN-3-YL-OXY)QUINOLIN-6-YL)-4-(DIMETHYLAMINO)-BUT-2-ENAMIDE], the half-inhibitory concentration (IC50) with A431 cells is 194 nM; in the experiment with A549 cells it was 2400 nM; with LoVo cells it was 2000 nM. In the experiment with Sk-Br-3 cells, this molecule returned a GI50 of 7 nM.
`CN(C)C/C=C/C(=O)Nc1cc2c(Nc3ccc(F)c(Cl)c3)c(C#N)cnc2cc1O[C@H]1CCOC1` [Example 142, (S,E)-N-(4-(3-CHLORO-4-FLUOROPHENYLAMINO)-3-CYANO-7-(TETRAHYDROFURAN-3-YL-OXY)QUINOLIN-6-YL)-4-(DIMETHYLAMINO)-BUT-2-ENAMIDE]: the inhibition at 1 µM in the experiment on A431 cells stood at 75%. Further, the half-inhibitory concentration (IC50) with A431 cells came to 45 nM; in the experiment on A549 cells, 1500 nM; in the experiment with LoVo cells, 8830 nM. The molecule also gave a GI50 in the experiment on Sk-Br-3 cells of 117 nM.
As for `CN(C)C/C=C/C(=O)Nc1cc2c(Nc3ccc(OCc4ccccc4Cl)c(Cl)c3)c(C#N)cnc2cc1OC1CCOC1` (stereo not drawn) [Example 10, (E)-N-(4-(4-(2-CHLOROBENZYLOXY)-3-CHLOROPHENYLAMINO)-3-CYANO-7-(TETRAHYDROFURAN-3-YL-OXY)QUINOLIN-6-YL)-4-(DIMETHYLAMINO)-BUT-2-ENAMIDE], the half-inhibitory concentration (IC50) is 222 nM in the experiment with A431 cells, 2300 nM with A549 cells and 2000 nM in the experiment with LoVo cells. The GI50 with Sk-Br-3 cells stood at 6 nM.

The values are drawn from patent publication US9187458B2, “Cyanoquinoline derivatives” (Tianjin Hemay Bio-Tech Co., LTD., priority 2010, dated 2015).
